Source: patent publication US8501741B2, “Optically active compound of prulifloxacin for treating infection and preparation method thereof” (priority 2010, dated 2013)

Experiments:
[1] = tested on: bacteria; settings: ulifloxacin enantiomers, small samples from chiral preparation chromatographic column; cited from earlier work
[2] = tested on: Escherichia coli; experiment: Systemic infection in mouse, E. coli; format: in vivo; settings: Kunming mice, intraperitoneal infection with minimal lethal dose, drug by gavage 1 hour after infection, 7 days observation, Bliss method; for ED50: Escherichia coli, ip
From the text: (§1) 1. Origin of testing samples:
(§2) • Levo-ofloxacin was commercially available.
(§3) Prulifloxacin was self-made product, prepared according to the method disclosed in the publication J. Med. Chem. 1992, 35, 4727-4738.
(§4) Levo-prulifloxacin, dextro-prulifloxacin, levo-prulifloxacin hydrochloride, levo-prulifloxacin mesylate were self-made, prepared according to the method described in examples (see respective ordinal number in parenthesis following name of testing drug in Table 6);
(§5) 2. Experimental strains: Bacteria for infecting animals were pathogenic strains isolated from clinic;
(§6) 3. Preparation of liquid bacteria culture: 2-3 colonies were picked and inoculated into M-H broth, followed by incubation for 18 hours at 37° C. The culture was diluted appropriately with 5% dried yeast liquid for use.
(§7) 4. Experimental animals: Healthy SPF Kunming mice were selected, with 18-22 g in body weight, half male and half female.
(§8) 5. Determination of minimal lethal dose of bacteria: Mice were divided randomly, resulting in 10 mice in each group, half male and half female. The above-mentioned bacterial cultures in different dilutions were injected intraperitoneally into mice, in the amount of 0.5 mL per mouse, followed by continuous observation for 7 days after infection and recording the number of death mice. The minimal amount of bacteria which caused 100% death of mice was deemed as minimal lethal dose of bacteria and thereby was adopted for infection tests in vivo. 6. Preparation of testing drugs: The testing drugs were prepared with 1% CMC, respectively. 7. Method for infection and treatment: Experimental animals were divided randomly but evenly based on gender and body weight, resulting in 10 mice in each group, half male and half female. Minimal lethal dose of bacteria were injected intraperitoneally into mice in amount of 0.5 mL/mice, respectively. After infected for 1 hour, the testing drugs in different doses were administered to mice by gavage in the amount of 0.2 ml/10 g, respectively. Seven dose groups of 0.05, 0.10, 0.20, 0.40, 0.80, 1.60, 3.20 mg/kg were set up for Escherichia coli while seven dose groups of 0.50, 1.0, 2.0, 4.0, 8.0, 16.0, 32.0 mg/kg were set up for Pseudomonas aeruginosa. Observation was conducted after administration and death statuses of the mice were recorded. A control group was set up and the number of mice which died within 7 days after infection was recorded at the same time. The obtained data were processed by Bliss method to calculate ED50. 8.

[3] = tested on: Pseudomonas aeruginosa; experiment: Systemic infection in mouse, P. aeruginosa; format: in vivo; settings: Kunming mice, intraperitoneal infection with minimal lethal dose, drug by gavage 1 hour after infection, 7 days observation, Bliss method; for ED50: Pseudomonas aeruginosa, ip
From the text: as §1, §2, §3, §4, §5, §6, §7, §8

[4] = Acute toxicity test in NIH mice, limited dosage by gavage; settings: both sexes, mouse, in vivo, po, 5000 mg/kg, single gavage, 2 weeks observation, read-out: LD50 of oral administration
Procedure: Acute toxicity test was conducted in NIH mice by administrating limited-dosages of drugs.
Levo-prulifloxacin; control groups: racemic prulifloxacin group and blank control group
20 NIH mice in each group, half male and half female, 18˜22 g in body weight, were fasted overnight. Levo-prulifloxacin and racemic prulifloxacin were prepared to a 250 mg/ml suspension with 0.3% CMC, respectively, and then administered to the mice by gavage at once in the amount of 0.2 mL/10 g. After administration, observation was firstly conducted for 4 hours continuously, and then once a day for 2 weeks continuously. Animals' responses to toxicity, appearing time and recovering time thereof were recorded. On Day 2, 4, 8, 11 and 15, body weight of the animals were measured and amounts of feed intake were determined. Observation indexes included diet, appearance, behavior, secretion, excrement and the like Animals' death was recorded, starting time, severity, duration of toxic symptoms and toxic reactions, whether the symptoms or reactions are reversible and the like were also recorded. Animals dying from poisoning and dying animals were dissected roughly in time while all other animals were dissected roughly after completing observation. […] The obtained data were processed by Bliss method to calculate LD50.

[5] = background statement; cited from earlier work

Compound | ED50 [2] | ED50 [3] | ED50 E. coli [2] | ED50 P. aeruginosa [3] | other results
C[C@@H]1Sc2c(C(=O)O)c(=O)c3cc(F)c(N4CCNCC4)cc3n21 (single isomer, unassigned) [levo-enantiomer] |  |  |  |  | antibacterial activity of levo-enantiomer relative to dextro-enantiomer [1]: 2 to 8 times
Cc1oc(=O)oc1CN1CCN(c2cc3c(cc2F)c(=O)c(C(=O)O)c2n3[C@H](C)S2)CC1 [(−) Prulifloxacin, S-(−)-6-fluoro-1-methyl-7-[4-(5-methyl-2-oxo-1,3-dioxolen-4-yl)methyl-1-piperazinyl]-4-oxo-4H-[1,3]thiazeto[3,2-α]quinoline-3-carboxylic acid] | 0.11 mg/kg | 1.02 mg/kg |  |  | LD50 at 2 weeks [4]: > 5000 mg/kg
CS(=O)(=O)O.Cc1oc(=O)oc1CN1CCN(c2cc3c(cc2F)c(=O)c(C(=O)O)c2n3[C@H](C)S2)CC1 [(−) Prulifloxacin mesylate, S-(−)-6-fluoro-1-methyl-7-[4-(5-methyl-2-oxo-1,3-dioxolen-4-yl)methyl-1-piperazinyl]-4-oxo-4H-[1,3]thiazeto[3,2-α]quinoline-3-carboxylic acid mesylate] |  |  | 0.11 mg/kg | 1.22 mg/kg | 
Cc1oc(=O)oc1CN1CCN(c2cc3c(cc2F)c(=O)c(C(=O)O)c2n3[C@H](C)S2)CC1.Cl [(−) Prulifloxacin hydrochloride, S-(−)-6-fluoro-1-methyl-7-[4-(5-methyl-2-oxo-1,3-dioxolen-4-yl)methyl-1-piperazinyl]-4-oxo-4H-[1,3]thiazeto[3,2-α]quinoline-3-carboxylic acid hydrochloride] |  |  | 0.12 mg/kg | 1.25 mg/kg | 
Cc1oc(=O)oc1CN1CCN(c2cc3c(cc2F)c(=O)c(C(=O)O)c2n3C(C)S2)CC1 (racemic) [(+/−) Prulifloxacin, (±)6-fluoro-1-methyl-7-[4-(5-methyl-2-oxo-1,3-dioxolen-4-yl)methyl-1-piperazinyl]-4-oxo-4H-[1,3]thiazeto[3,2-α]quinoline-3-carboxylic acid, reference compound] | 0.53 mg/kg | 4.04 mg/kg |  |  | LD50 at 2 weeks [4]: > 5000 mg/kg; half-life [5]: 8 to 9 h; time at which peak blood concentration is attained [5]: 0.5 to 1 h
CC1COc2c(N3CCN(C)CC3)c(F)cc3c(=O)c(C(=O)O)cn1c23 (centres unmarked) [Ofloxacin, reference compound] | 0.82 mg/kg | 16.1 mg/kg |  |  | 
Cc1oc(=O)oc1CN1CCN(c2cc3c(cc2F)c(=O)c(C(=O)O)c2n3C(C)S2)CC1 (single isomer, unassigned; (+)) [(+) Prulifloxacin] |  |  | 1.58 mg/kg | 8.20 mg/kg | 
